Source: paper PMC9797896 (Medicinal Chemistry Research, 2022)

Key:
Vero E6 cells = details: African green monkey
in vitro = details: African green monkey

Row | SMILES | CC50 (Vero E6 cells) [µM] | CC50 (in vitro) [µM]
1 | OC[C@H]1O[C@@H](n2cnc3c(N[C@@H]4CCOC4)ncnc32)[C@H](O)[C@@H]1O [Tecadenoson, tecadenoson] | > 100 | –
2 | COc1nc(N)nc2c1ncn2[C@@H]1O[C@H](CO)[C@@H](O)[C@@H]1O [Nelarabine, nelarabine] | > 100 | –
3 | Nc1ncnc2c1ncn2[C@@H]1O[C@H](CO)[C@@H](O)[C@@H]1O [Vidarabine, Arabinosyladenine] | > 100 | –
4 | CC(C)=CCNc1ncnc2c1ncn2[C@@H]1O[C@H](CO)[C@@H](O)[C@H]1O [Riboprine, N^6-(2-Isopentenyl)adenosine] | > 100 | –
5 | O=c1[nH]cnc2c([C@@H]3N[C@H](CO)[C@@H](O)[C@H]3O)c[nH]c12 [Forodesine, forodesine] | > 100 | –
6 | CCC(CC)COC(=O)[C@H](C)N[P@](=O)(OC[C@H]1O[C@@](C#N)(c2ccc3c(N)ncnn23)[C@H](O)[C@@H]1O)Oc1ccccc1 [Remdesivir, remdesivir] | – | > 100
7 | CC(C)Nc1nc2cc(Cl)c(Cl)cc2n1[C@H]1O[C@@H](CO)[C@H](O)[C@@H]1O [Maribavir, maribavir] | > 100 | –
8 | CC(C)C(=O)OC[C@H]1O[C@@H](n2ccc(NO)nc2=O)[C@H](O)[C@@H]1O [Molnupiravir, molnupiravir] | > 100 | –
